Reference: patent US20220378773A1, “METHODS FOR TREATING LEUKEMIA AND USE OF A LEUKEMIC STEM CELL SIGNATURE TO PREDICT CLINICAL SENSITIVITY TO THERAPIES” (CELGENE CORPORATION, priority 2019, published 2022)

Columns and labels:
[1] = system: AML graft (human CD45+CD33+ cells); assay: AML xenograft efficacy, 2.5 mg/kg IP twice daily; assay type: in vivo, NOD/SCID mice; details: AML Patient 90668; 500,000 cells per mouse; dosing from Day 21
[2] = system: AML graft (human CD45+CD33+ cells); assay: AML xenograft efficacy, 2.5 mg/kg IP twice daily; assay type: in vivo, NOD/SCID mice; details: for In vivo Efficacy (% reduction) BM / In vivo Efficacy (% reduction) RF: AML cells vs vehicle; for Response: class by % reduction of AML cells in RF or BM
Text: Preparation of Test Article for Dosing: For in vivo Compound D dosing, Compound D was formulated immediately prior to each dose following the protocol below.
Formulation: 5% NMP/45% polyethylene glycol (PEG) 400/50% Saline; NMP—Catalogue no. 69118 (new no. M79603-1L), Fluka; PEG400—Catalogue no. 81172-1L, Fluka; Saline—0.9% sodium chloride.
Preparation: Weigh the desired amount of compound in glass vial. Add NMP and vortex. Make sure that entire compound is wet. Add PEG400 and vortex until clear solution without particulates. Add saline slowly and mix thoroughly for about a minute with hand held homogenizer with disposable tip.
Compound Administration: Compound D is dosed via the intraperitoneal route. Vehicle and Compound D are dosed in a volume of 2.5 mL/kg for twice daily (BID) dosing (if testing once daily [QD] dosing, use a dose volume of 5 mL/kg). Recommend a twice daily protocol with a 3-hour separation between the doses.
Intrafemoral Transplantation: One day prior to transplantation, NOD/SCID mice were preconditioned by sublethally irradiating (275 cGy) followed by injection with anti-CD122 antibody (200 μg/mouse) to deplete residual host natural killer (NK) cells. On the day of transplantation, viably frozen AML bulk cells (see Section 6.2.1.2) were thawed, counted, and transplanted intrafemorally into the preconditioned mice at a dose of 5×10^6 cells/mouse in a total volume of 30 μL phosphate buffered saline.
Treatment and Assay Procedure: At Day 21 post AML transplantation, mice were randomly grouped and dosed with either Compound D at 2.5 mg/kg or vehicle (5% N-methyl-2-pyrrolidone [NMP]/45% polyethylene glycol [PEG] 400/50% saline), intraperitoneally twice daily in a dose volume of 50 μL for 4 weeks. All animals were euthanized at scheduled termination (1 day after the last treatment) and bone marrow was collected from the right femur (injected bone marrow) and the left femur and left and right tibia (non-injected bone marrow). Cells isolated from injected or non-injected bone marrow were analyzed by flow cytometry to assess AML engraftment, and were viably frozen for future secondary engraftment analysis.
Cells harvested from injected and non-injected bone marrow were stained with mouse anti human antibodies as indicated in Section 6.2.1.3. After staining, washed cells were run on an LSRII flow cytometer (BD, USA) with 10,000 to 20,000 events collected for each sample. Collected data were analyzed by FlowJo software (TreeStar, USA) to assess AML engraftment levels in different tissues as determined by the percentage of human CD45+CD33+ cells.
Immune-deficient NOD/SCID mice were sublethally irradiated (225cGy) and treated with anti-CD122 antibody to eradicate residual mouse NK cells the day before AML implantation. Primary AML cells from each patient were intrafemorally injected into the mouse right femur at the cell dose 5×10^6 per mouse, with 10 mice transplanted per sample. Compound D and vehicle treatment was initiated at day 21 post transplantation. Compound D was administered at 2.5 mg/kg, intraperitoneally (IP) twice a day at 3 hours apart for 4 weeks. Before each treatment, Compound D was freshly dissolved into the solution. Vehicle was the same solution without Compound D compound and given to the control-treated mice at same volume (50 μL/mouse) with the same therapeutic schedule as Compound D treatment. For each patient sample, each treated group had 5 mice.
After treatment finished, cells were harvested from both injected right femur (RF) and non-injected bone marrow (BM, including left femur, 2 tibias), and stained with human antibodies to assess the engraftment levels of AML. Antibodies used for staining included: Mouse anti-human CD45-APC, CD15-FITC, CD34-APC7, CD38-PC7 (BD Biosciences, USA), CD14-PE, CD33-PC5 (Beckman Coulter, USA), CD19-V450, CD19-AF700, CD11b-APC7, CD34-BV421 (BD Biosciences, USA), and propidium iodide (PI; Invitrogen, USA).

[3] = three samples with high LSC17 score

With O=C1CCC(N2Cc3cc(CNC(=O)C(F)(F)c4ccc(Cl)cc4)ccc3C2=O)C(=O)N1 (stereo not drawn) [Compound D, 2-(4-chlorophenyl)-N-((2-(2,6-dioxopiperidin-3-yl)-1-oxoisoindolin-5-yl)methyl)-2,2-difluoroacetamide] the survival [1] was “did not improve survival”, the “response of samples with low LSC17 scores” value ([2]; 7 of the low LSC17 samples, more than 50% reduction) was “responded very well” and the “human CD45+ leukemia graft in RF and BM” value ([2]; AML 100348 (low LSC17)) was “significant response”. The paralyzation or death ([2]; AML Patient 90668, 5 million cells per mouse) was “did not rescue these mice from paralyzation or death”, the “number of high LSC17 samples with more than 80% leukemia reduction, BM” value ([2]; BM) was 17 and the “number of samples with 50 to 75% reduction (group 2), BM” value ([2]; BM) was 6. For the same compound, the “number of samples with >80% reduction (group 1), BM” value ([2]; BM) was 14, the “In vivo Efficacy (% reduction) BM” value ([2]; Patient 598) was 95% and the “In vivo Efficacy (% reduction) RF” value ([2]; Patient 598) was 46%. For the same compound, the Response ([2]; Patient 598) was “R (R = >60%)”, the “In vivo Efficacy (% reduction) BM” value ([2]; Patient 90191) was −250% and the “In vivo Efficacy (% reduction) RF” value ([2]; Patient 90191) was −21%. The Response ([2]; Patient 90191) was “NR (NR = <30%)”, the “In vivo Efficacy (% reduction) BM” value ([2]; Patient 100348) was 90% and the “In vivo Efficacy (% reduction) RF” value ([2]; Patient 100348) was 86%. The Response ([2]; Patient 100348) was “R (R = >60%)”, the “In vivo Efficacy (% reduction) BM” value ([2]; Patient 110484) was 96% and the “In vivo Efficacy (% reduction) RF” value ([2]; Patient 110484) was 73%. The Response ([2]; Patient 110484) was “R (R = >60%)”, the “In vivo Efficacy (% reduction) BM” value ([2]; Patient 110500) was 67% and the “In vivo Efficacy (% reduction) RF” value ([2]; Patient 110500) was 72%. For the same compound, the Response ([2]; Patient 110500) was “R (R = >60%)”, the “In Vivo Efficacy (Primary Mice) % AML cell reduction relative to Veh, BM” value ([2]; Patient 110625) was 99.9% and the “In Vivo Efficacy (Primary Mice) % AML cell reduction relative to Veh, RE” value ([2]; Patient 110625) was 99.9%. The “In vivo Efficacy (% reduction) BM” value ([2]; Patient 120791) was 98%, the “In vivo Efficacy (% reduction) RF” value ([2]; Patient 120791) was 69% and the Response ([2]; Patient 120791) was “R (R = >60%)”. For the same compound, the “In vivo Efficacy (% reduction) BM” value ([2]; Patient 120846) was 26%, the “In vivo Efficacy (% reduction) RF” value ([2]; Patient 120846) was 9% and the Response ([2]; Patient 120846) was “NR (NR = <30%)”. For the same compound, the “In vivo Efficacy (% reduction) BM” value ([2]; Patient 120858) was 2%, the “In vivo Efficacy (% reduction) RF” value ([2]; Patient 120858) was 0% and the Response ([2]; Patient 120858) was “NR (NR = <30%)”. The “percent and number of CD34+ primitive cells” value ([2]; Patient 120860) was “not reduced”, the “numbers of AML cells, injected femur” value ([2]; Patient 120860 (low LSC17)) was “did not reduce the numbers of AML cells” and the “number of AML cells, non-injected BM” value ([2]; Patient 120860 (low LSC17), vs vehicle) was “significantly reduced”. For the same compound, the “In vivo Efficacy (% reduction) BM” value ([2]; Patient 120860) was 20%, the “In vivo Efficacy (% reduction) RF” value ([2]; Patient 120860) was 1% and the Response ([2]; Patient 120860) was “NR (NR = <30%)”. For the same compound, the “In vivo Efficacy (% reduction) BM” value ([2]; Patient 120899) was 67%, the “In vivo Efficacy (% reduction) RF” value ([2]; Patient 120899) was 13% and the Response ([2]; Patient 120899) was “R (R = >60%)”. The “In vivo Efficacy (% reduction) BM” value ([2]; Patient 121020) was 52%, the “In vivo Efficacy (% reduction) RF” value ([2]; Patient 121020) was 42% and the Response ([2]; Patient 121020) was “PR (PR = 30%-60%)”. The “In Vivo Efficacy (Primary Mice) % AML cell reduction relative to Veh, BM” value ([2]; Patient 130311) was 99.6%, the “In Vivo Efficacy (Primary Mice) % AML cell reduction relative to Veh, RE” value ([2]; Patient 130311) was 99.8% and the “In vivo Efficacy (% reduction) BM” value ([2]; Patient 130578) was 73%. For the same compound, the “In vivo Efficacy (% reduction) RF” value ([2]; Patient 130578) was 61%, the Response ([2]; Patient 130578) was “R (R = >60%)” and the “In vivo Efficacy (% reduction) BM” value ([2]; Patient 130695) was 86%. The “In vivo Efficacy (% reduction) RF” value ([2]; Patient 130695) was 52%, the Response ([2]; Patient 130695) was “R (R = >60%)” and the “In vivo Efficacy (% reduction) BM” value ([2]; Patient 130712) was 56%. For the same compound, the “In vivo Efficacy (% reduction) RF” value ([2]; Patient 130712) was 17%, the Response ([2]; Patient 130712) was “PR (PR = 30%-60%)” and the “In Vivo Efficacy (Primary Mice) % AML cell reduction relative to Veh, BM” value ([2]; Patient 130826) was 98.1%. For the same compound, the “In Vivo Efficacy (Primary Mice) % AML cell reduction relative to Veh, RE” value ([2]; Patient 130826) was 95.0%, the “In vivo Efficacy (% reduction) BM” value ([2]; Patient 130926) was 85% and the “In vivo Efficacy (% reduction) RF” value ([2]; Patient 130926) was 70%. For the same compound, the Response ([2]; Patient 130926) was “R (R = >60%)”, the “In vivo Efficacy (% reduction) BM” value ([2]; Patient 140171) was 28% and the “In vivo Efficacy (% reduction) RF” value ([2]; Patient 140171) was 4%. For the same compound, the Response ([2]; Patient 140171) was “NR (NR = <30%)”, the “In Vivo Efficacy (Primary Mice) % AML cell reduction relative to Veh, BM” value ([2]; Patient 150238) was 98.7% and the “In Vivo Efficacy (Primary Mice) % AML cell reduction relative to Veh, RE” value ([2]; Patient 150238) was 95.2%. For the same compound, the “number of high LSC17 samples with more than 80% leukemia reduction, RF” value ([2]; RF) was 13, the “number of samples with 50 to 75% reduction (group 2), RF” value ([2]; RF) was 10 and the “number of samples with >80% reduction (group 1), RF” value ([2]; RF) was “Seventeen”. For the same compound, the “number of samples with less than 25% reduction (group 3), RF” value ([2]; RF) was 9, the “response, secondary and relapsed vs de novo AML” value ([2]; RF and BM) was “responses similar to the cells from de novo AML patients” and the “samples considered responders or partial-responders” value ([2]; RF and BM, all samples) was 29 out of 35 samples. The “AML samples with significant effect” value ([2]; Section 6.2.6, 4 weeks) was “significant effects on 4 out of 5 AML samples”, the “engrafted samples with significant and dramatic responses” value ([2]; Section 6.3, 31 patient samples tested) was 24 out of 28 and the responder samples ([2]; among 7 AML samples incl. 2 pilot samples) was 5 samples were responders. For the same compound, the “samples that did not respond at all, injected RF” value ([2]; group 3) was 4 out of 9, the “samples with no AML reduction, BM” value ([2]; group 3) was 3 out of 6 and the “response, Flt3-ITD vs wild-type Flt3 in cytogenetically normal AML” value ([2]; mouse, in vivo) was “slightly less response to Compound D in injected RF but similar response in BM”. For the same compound, the “response, abnormal vs normal karyotypes” value ([2]; mouse, in vivo) was “better response”, the “AML cells in RF and BM” value [2, 3] was “completely eradicated to undetectable levels” and the “absolute numbers of primitive CD34+ cells” value [2, 3] was “very low and undetectable levels”.
